Measurements: patent US11446287B2, “Compounds and methods for EP300 or CBP modulation and indications therefor” (Opna Immuno-Oncology SA, priority 2019, dated 2022)

target: T1, Recombinant human CBP containing the bromodomain (CBP-BD (1043-1159)) (Homo sapiens, UniProt Q92793); test: CBP Alphascreen binding assay; conditions: read-out: CREBBP (CBP) IC50
T1 construct: Recombinant human CBP bromodomain (CBP-BD (1043-1159)); made in house; host or cells: E. coli BL21-CodonPlus (DE3), modified pET vector
T1 sequence (Q92793 1081-1197): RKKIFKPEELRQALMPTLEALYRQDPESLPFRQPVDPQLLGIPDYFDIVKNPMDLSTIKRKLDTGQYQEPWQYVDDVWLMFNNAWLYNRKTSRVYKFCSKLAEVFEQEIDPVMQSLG
Summary of the method: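 Buffer: 50 mM HEPES pH 7.5, 50 mM NaCl, 0.01% BSA, 0.01% Triton X-100, 2 mM DTT. The signal was normalised to plate controls and fitted with a four-parameter curve to give IC50.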

Compound	IC50
CCOc1cc(C(=O)O)cc(OCC)c1-n1cc(-c2cnn(CCC#N)c2)c2ncc(-c3c(C)noc3C)cc21 [P-0266, 4-(3-(1-(2-cyanoethyl)-1H-pyrazol-4-yl)-6-(3,5-dimethylisoxazol-4-yl)-1H-pyrrolo[3,2-b]pyridin-1-yl)-3,5-diethoxybenzoic acid]	0.1 to 1000 nM
CCOc1cc(C(=O)O)cc(OCC)c1-n1cc(-c2cnn(CC(=O)N(C)C)c2)c2ncc(-c3c(C)noc3C)cc21 [P-0267, 4-(3-(1-(2-(dimethylamino)-2-oxoethyl)-1H-pyrazol-4-yl)-6-(3,5-dimethylisoxazol-4-yl)-1H-pyrrolo[3,2-b]pyridin-1-yl)-3,5-diethoxybenzoic acid]	0.1 to 1000 nM
Cc1noc(C)c1-c1cnc2c(c1)c(-c1cc(C(=O)O)ccc1OC(F)(F)F)cn2-c1ccc(F)cc1F [P-0268, 3-(1-(2,4-difluorophenyl)-5-(3,5-dimethylisoxazol-4-yl)-1H-pyrrolo[2,3-b]pyridin-3-yl)-4-(trifluoromethoxy)benzoic acid]	0.1 to 1000 nM
Cc1noc(C)c1-c1cnc2c(-c3ccc(F)cc3F)cn(-c3c(OC(C)C)cc(C(=O)O)cc3OC(C)C)c2c1 [P-0269, 4-(3-(2,4-difluorophenyl)-6-(3,5-dimethylisoxazol-4-yl)-1H-pyrrolo[3,2-b]pyridin-1-yl)-3,5-diisopropoxybenzoic acid]	0.1 to 1000 nM
CCOc1cc(C(=O)O)cc(OCC)c1-n1cc(CC2CCC2)c2ncc(-n3c(C)nnc3C)cc21 [P-0270, 4-(3-(cyclobutylmethyl)-6-(3,5-dimethyl-4H-1,2,4-triazol-4-yl)-1H-pyrrolo[3,2-b]pyridin-1-yl)-3,5-diethoxybenzoic acid]	1000 to 8000 nM
CCOc1cc(C(=O)O)cc(OCC)c1-n1cc(C2CCC(F)(F)CC2)c2ncc(-c3c(C)noc3C)cc21 [P-0271, 4-(3-(4,4-difluorocyclohexyl)-6-(3,5-dimethylisoxazol-4-yl)-1H-pyrrolo[3,2-b]pyridin-1-yl)-3,5-diethoxybenzoic acid]	0.1 to 1000 nM
Cc1noc(C)c1-c1cnc2c(c1)c(-c1cnn(CC(=O)O)c1)cn2-c1ncccc1C#CC1CC1 [P-0272, 2-(4-(1-(3-(cyclopropylethynyl)pyridin-2-yl)-5-(3,5-dimethylisoxazol-4-yl)-1H-pyrrolo[2,3-b]pyridin-3-yl)-1H-pyrazol-1-yl)acetic acid]	0.1 to 1000 nM
Cc1noc(C)c1-c1cnc2c(c1)c(-c1ccc(C(=O)O)cc1OC(F)F)cn2-c1ccccc1 [P-0273, 3-(difluoromethoxy)-4-(5-(3,5-dimethylisoxazol-4-yl)-1-phenyl-1H-pyrrolo[2,3-b]pyridin-3-yl)benzoic acid]	0.1 to 1000 nM
Cc1noc(C)c1-c1cnc2c(-c3ccccc3)cn(-c3cc(C(=O)O)ccc3OC(F)(F)F)c2c1 [P-0274, 3-(6-(3,5-dimethylisoxazol-4-yl)-3-phenyl-1H-pyrrolo[3,2-b]pyridin-1-yl)-4-(trifluoromethoxy)benzoic acid]	0.1 to 1000 nM
Cc1noc(C)c1-c1cnc2c(c1)c(-c1ccc(C(=O)O)cc1OC(C)C)cn2-c1ccccc1 [P-0275, 4-(5-(3,5-dimethylisoxazol-4-yl)-1-phenyl-1H-pyrrolo[2,3-b]pyridin-3-yl)-3-isopropoxybenzoic acid]	0.1 to 1000 nM
Cc1noc(C)c1-c1cnc2c(c1)c(-c1ccc(C(=O)O)cc1OC1CCC1)cn2-c1ccccc1 [P-0276, 3-cyclobutoxy-4-(5-(3,5-dimethylisoxazol-4-yl)-1-phenyl-1H-pyrrolo[2,3-b]pyridin-3-yl)benzoic acid]	0.1 to 1000 nM
Cc1noc(C)c1-c1cnc2c(c1)c(-c1ccc(C(=O)O)cc1OCC(F)F)cn2-c1ccccc1 [P-0277, 3-(2,2-difluoroethoxy)-4-(5-(3,5-dimethylisoxazol-4-yl)-1-phenyl-1H-pyrrolo[2,3-b]pyridin-3-yl)benzoic acid]	0.1 to 1000 nM
Cc1noc(C)c1-c1cnc2c(c1)c(-c1ccc(C(=O)O)cc1OCC(F)(F)F)cn2-c1ccccc1 [P-0278, 4-(5-(3,5-dimethylisoxazol-4-yl)-1-phenyl-1H-pyrrolo[2,3-b]pyridin-3-yl)-3-(2,2,2-trifluoroethoxy)benzoic acid]	0.1 to 1000 nM
Cc1noc(C)c1-c1cnc2c(c1)c(-c1ccc(C(=O)O)cc1OC(F)(F)F)cn2-c1ccc(F)cc1 [P-0279, 4-(5-(3,5-dimethylisoxazol-4-yl)-1-(4-fluorophenyl)-1H-pyrrolo[2,3-b]pyridin-3-yl)-3-(trifluoromethoxy)benzoic acid]	0.1 to 1000 nM
Cc1noc(C)c1-c1cnc2c(c1)c(-c1cnn(CC(=O)O)c1)cn2C(C1CC1)C1CC1 [P-0280, 2-(4-(1-(dicyclopropylmethyl)-5-(3,5-dimethylisoxazol-4-yl)-1H-pyrrolo[2,3-b]pyridin-3-yl)-1H-pyrazol-1-yl)acetic acid]	0.1 to 1000 nM
Cc1noc(C)c1-c1cnc2c(c1)c(-c1ccc(C(=O)O)cc1OC(F)(F)F)cn2-c1cnc(N2CCC2)nc1 [P-0281, 4-(1-(2-(azetidin-1-yl)pyrimidin-5-yl)-5-(3,5-dimethylisoxazol-4-yl)-1H-pyrrolo[2,3-b]pyridin-3-yl)-3-(trifluoromethoxy)benzoic acid]	0.1 to 1000 nM
Cc1noc(C)c1-c1cnc2c(c1)c(-c1ccc(C(=O)O)cc1OC(F)(F)F)cn2-c1ccc(S(C)(=O)=O)cc1 [P-0282, 4-(5-(3,5-dimethylisoxazol-4-yl)-1-(4-(methylsulfonyl)phenyl)-1H-pyrrolo[2,3-b]pyridin-3-yl)-3-(trifluoromethoxy)benzoic acid]	0.1 to 1000 nM
Cc1noc(C)c1-c1cnc2c(c1)c(-c1c(Cl)cc(C(=O)O)cc1OC(C)C)cn2C(C1CC1)C1CC1 [P-0283, 3-chloro-4-(1-(dicyclopropylmethyl)-5-(3,5-dimethylisoxazol-4-yl)-1H-pyrrolo[2,3-b]pyridin-3-yl)-5-isopropoxybenzoic acid]	0.1 to 1000 nM
Cc1noc(C)c1-c1cnc2c(c1)c(-c1cc(C(=O)O)ccc1OC(F)(F)F)cn2C(C1CC1)C1CC1 [P-0284, 3-(1-(dicyclopropylmethyl)-5-(3,5-dimethylisoxazol-4-yl)-1H-pyrrolo[2,3-b]pyridin-3-yl)-4-(trifluoromethoxy)benzoic acid]	0.1 to 1000 nM
Cc1noc(C)c1-c1cnc2c(c1)c(-c1ccc(C(=O)O)cc1OC(F)(F)F)cn2[C@H]1CCOC1 [P-0285, (S)-4-(5-(3,5-dimethylisoxazol-4-yl)-1-(tetrahydrofuran-3-yl)-1H-pyrrolo[2,3-b]pyridin-3-yl)-3-(trifluoromethoxy)benzoic acid]	0.1 to 1000 nM
Cc1noc(C)c1-c1cnc2c(c1)c(-c1ccc(C(=O)O)cc1OC(F)(F)F)cn2[C@@H]1CCOC1 [P-0286, (R)-4-(5-(3,5-dimethylisoxazol-4-yl)-1-(tetrahydrofuran-3-yl)-1H-pyrrolo[2,3-b]pyridin-3-yl)-3-(trifluoromethoxy)benzoic acid]	0.1 to 1000 nM
CCn1cc(-n2cc(-c3ccc(C(=O)O)cc3OC(F)(F)F)c3cc(-c4c(C)noc4C)cnc32)c(C)n1 [P-0287, 4-(5-(3,5-dimethylisoxazol-4-yl)-1-(1-ethyl-3-methyl-1H-pyrazol-4-yl)-1H-pyrrolo[2,3-b]pyridin-3-yl)-3-(trifluoromethoxy)benzoic acid]	0.1 to 1000 nM
Cc1nn(C(F)F)cc1-n1cc(-c2ccc(C(=O)O)cc2OC(F)(F)F)c2cc(-c3c(C)noc3C)cnc21 [P-0288, 4-(1-(1-(difluoromethyl)-3-methyl-1H-pyrazol-4-yl)-5-(3,5-dimethylisoxazol-4-yl)-1H-pyrrolo[2,3-b]pyridin-3-yl)-3-(trifluoromethoxy)benzoic acid]	0.1 to 1000 nM
Cc1noc(C)c1-c1cnc2c(c1)c(-c1ccc(C(=O)O)cc1OC(F)(F)F)cn2-c1cnn(C(F)F)c1C [P-0289, 4-(1-(1-(difluoromethyl)-5-methyl-1H-pyrazol-4-yl)-5-(3,5-dimethylisoxazol-4-yl)-1H-pyrrolo[2,3-b]pyridin-3-yl)-3-(trifluoromethoxy)benzoic acid]	0.1 to 1000 nM
Cc1noc(C)c1-c1cnc2c(c1)c(-c1ccc(C(=O)O)cc1OC(F)(F)F)cn2C1CCNCC1 [P-0290, 4-(5-(3,5-dimethylisoxazol-4-yl)-1-(piperidin-4-yl)-1H-pyrrolo[2,3-b]pyridin-3-yl)-3-(trifluoromethoxy)benzoic acid]	0.1 to 1000 nM
CC(=O)N1CCC(n2cc(-c3ccc(C(=O)O)cc3OC(F)(F)F)c3cc(-c4c(C)noc4C)cnc32)CC1 [P-0291, 4-(1-(1-acetylpiperidin-4-yl)-5-(3,5-dimethylisoxazol-4-yl)-1H-pyrrolo[2,3-b]pyridin-3-yl)-3-(trifluoromethoxy)benzoic acid]	0.1 to 1000 nM
Cc1noc(C)c1-c1cnc2c(c1)c(-c1ccc(C(=O)O)cc1OC(F)(F)F)cn2C1CCN(S(C)(=O)=O)CC1 [P-0292, 4-(5-(3,5-dimethylisoxazol-4-yl)-1-(1-(methylsulfonyl)piperidin-4-yl)-1H-pyrrolo[2,3-b]pyridin-3-yl)-3-(trifluoromethoxy)benzoic acid]	0.1 to 1000 nM
Cc1noc(C)c1-c1cnc2c(c1)c(-c1ccc(C(=O)O)cc1OC(F)(F)F)cn2-c1ccncc1F [P-0293, 4-(5-(3,5-dimethylisoxazol-4-yl)-1-(3-fluoropyridin-4-yl)-1H-pyrrolo[2,3-b]pyridin-3-yl)-3-(trifluoromethoxy)benzoic acid]	0.1 to 1000 nM
Cc1noc(C)c1-c1cnc2c(c1)c(-c1ccc(C(=O)O)cc1OC(F)(F)F)cn2-c1cnn(CC(C)(C)O)c1 [P-0294, 4-(5-(3,5-dimethylisoxazol-4-yl)-1-(1-(2-hydroxy-2-methylpropyl)-1H-pyrazol-4-yl)-1H-pyrrolo[2,3-b]pyridin-3-yl)-3-(trifluoromethoxy)benzoic acid]	0.1 to 1000 nM
CCOc1cc(C(=O)O)ncc1-c1cn(-c2ccc(F)cc2F)c2ncc(-c3c(C)noc3C)cc12 [P-0295, 5-(1-(2,4-difluorophenyl)-5-(3,5-dimethylisoxazol-4-yl)-1H-pyrrolo[2,3-b]pyridin-3-yl)-4-ethoxypicolinic acid]	0.1 to 1000 nM
